From patent US20230103644A1, “TREATMENT OF EPILEPSY” (Katholieke Universiteit Leuven, priority 2020, published 2023)
Entries after “also recorded” stand apart in the source; their conditions may differ. Blank lines part the entries; values can stand above or below the molecule they belong to.

Tests used:
[1] = tested on: EKP induced seizures in zebrafish larvae; assay: Zebrafish drug resistant epilepsy model: ethyl ketopentenoate (EKP), locomotor tracking; type: in vivo; conditions: for activity after EKP exposure (locomotor activity relative to EKP only): 1 μM compound, 300 μM EKP, 30 min recording; for effect on EKP induced seizures (locomotor activity, actinteg units): 7 dpf larvae, compound at MTC (CQ 3 μM, CH 3.125 μM, PBT-1033 6 μM) 2 h before 300 μM EKP
Experimental: Larvae (7 dpf) in 100 μl VHC were arrayed individually in a 96-well plate (tissue culture plate, at bottom, Falcon, USA) and kept in the light at 28° C. Two-hours before tracking compound (clioquinol (CQ), chloroxine (CH), PBT-1033) and/or inhibitor (disulfiram (DS), CBR) was added at their MTC to the larvae and afterwards the 96-well plates were placed in darkness at 28° C. for 2 hours. Just prior to tracking 100 µl of VHC or EKP stock solution was added to each well to obtain a EKP concentration of 300 μM. The plates were placed in an automated video tracking device (ZebraBox™ apparatus; Viewpoint, Lyon, France) and the locomotor behavior of the larvae was monitored for 40 min in the dark at 28° C. Locomotor activity was quantified using ZebraLab™ software (Viewpoint, Lyon, France) and expressed in “actinteg” units per 5-min interval. For each larvae, 30 min of tracking data after the effect of EKP was initiated was used. The actinteg value is defined as the sum of all image pixel changes detected during the time window.
Locomotor activity was quantified using ZebraLab™ software (Viewpoint, Lyon, France) and expressed in mean “actinteg” units per 5-min+/−SEM during a 30 min recording interval relative to EKP only. Statistical analysis: one-way ANOVA with Dunnett's multiple comparison test. A statistical difference is indicated by: ****p<0.0001. For each condition n=10 larvae were used and the experiment was performed two times (n total=20 per condition).

human Phgdh = target: T1, human Phgdh (Homo sapiens, UniProt O43175); assay: Phgdh activity assay (colorimetric kit, NADH at 450 nm); type: biochemical; conditions: for Phgdh activation (in words): 25 μM compound
T1 construct: purchased BPS bioscience 71079
T1 sequence (O43175 1-533): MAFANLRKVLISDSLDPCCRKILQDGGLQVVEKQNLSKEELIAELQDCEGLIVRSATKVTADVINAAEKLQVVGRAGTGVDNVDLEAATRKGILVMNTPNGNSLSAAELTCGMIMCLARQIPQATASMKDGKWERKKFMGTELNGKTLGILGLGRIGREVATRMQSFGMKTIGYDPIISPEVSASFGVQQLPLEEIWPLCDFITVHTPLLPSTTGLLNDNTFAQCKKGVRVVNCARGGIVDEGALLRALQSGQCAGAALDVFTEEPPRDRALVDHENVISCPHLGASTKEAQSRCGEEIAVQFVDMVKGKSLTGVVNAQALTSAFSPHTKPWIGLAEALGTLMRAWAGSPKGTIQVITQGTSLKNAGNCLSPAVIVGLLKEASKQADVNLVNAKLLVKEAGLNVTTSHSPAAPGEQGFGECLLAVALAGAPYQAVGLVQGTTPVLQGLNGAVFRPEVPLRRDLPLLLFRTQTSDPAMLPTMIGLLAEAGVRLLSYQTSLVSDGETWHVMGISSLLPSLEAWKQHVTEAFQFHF
Experimental: Phgdh enzyme activity upon drug treatment was tested using human Phgdh (BPS bioscience, 71079) and a specific colorimetric Phgdh activity kit (Biovision, K569). The Phgdh inhibitor Disulfiram [Spillier et al. (2019) Sci Rep. 9, 4737], served as […].
Briefly, Human Phgdh enzyme was diluted in assay buffer at a concentration of 0.38 mg/mL. Next, 5 μl of this Phgdh enzyme solution and 5 μL of the compounds in 5% DMSO and assay buffer was added (to wells of flat bottom 96-well plate). Subsequently, 40 μl Phgdh assay buffer (Biovision) and 50 μl Phgdh reaction mix (prepared as described in the protocol of the Phgdh assay kit K569, Biovision) was added. The final amount of enzyme per reaction was 0.35 μM. Afterwards, absorbance at 450 nm, indicative for the amount of NADH generated, was measured over time. NADH is one of the end products of the reaction. In between measurements, the plate was incubated at 37° C., protected from light.

Scn1Lab mutant larvae = assay: Zebrafish model of Dravet syndrome, locomotor behavioural assay; type: in vivo; conditions: 6 dpf larvae, MTC concentration in 0.1% DMSO, 2 h incubation, normalized to VHC-treated mutants
Experimental: 6 dpf Scn1Lab mutant larvae (selected by their darker appearance, lack of a swim bladder and slight curvature of the body on 6 dpf) and WT larvae were arrayed in a 96-well plate (one larva per well) and treated with 100 μl VHC (0.1% DMSO) or compound (MTC concentration in 0.1% DMSO). After incubation at 28° C. on a 14/10 h light/dark cycle for 2 h, the plates were immediately placed in an enclosed tracking device (ZebraBox Viewpoint, France) and chamber habituation for 30 min. The locomotor activity of the larvae were evaluated during 10 min under dark conditions and quantified by the lardist parameter (total distance in large movements) and plotted in cm (ZebraLab™ software, Viewpoint, Lyon, France). Data was collected from 3-4 larvae per treatment condition. The locomotor data were analysed by normalizing the locomotor activity of treated larvae against VHC-treated Scn1Lab mutant larvae.

[2] = cited from earlier work
[3] = cited from earlier work; remark: listed apart in the source
[4] = tested on: cAMP-transporting ABC pumps; conditions: possible targets ABCC4 and ABCC11; cited from earlier work
[5] = cited from earlier work; remark: listed apart in the source
[6] = tested on: 6-Hz (44 mA) psychomotor seizures in NMRI mice; assay: Mouse 6-Hz (44 mA) psychomotor seizure model; type: in vivo; conditions: i.p. injection 60 min before corneal stimulation
Experimental: Male NMRI mice (weight 25-30 g) were acquired from Charles River Laboratories (France) and housed in polyacrylic cages under a 14/10-hour light/dark cycle at 21° C. The animals were fed a pellet diet and water ad libitum, and were allowed to acclimate for 1 week before experimental procedures were conducted. Prior to the experiment, mice were isolated in polyacrylic cages with a pellet diet and water ad libitum for habituation overnight in the experimental room, to minimize stress. The antiseizure activity of compounds was investigated in the mouse 6-Hz (44 mA) psychomotor seizure model as described before [Copmans et al (2018) ACS Chem Neurosci. 9, 1652-1662.]. In brief, 500 μl (injection volume was adjusted to the individual weight) of VHC (0.5% sodiumcarboxymethylcellulose (NaCMC)/Tween80 in 0.9% NaCl) or treatment (valproate or clioquinol dissolved in VHC) was i.p. injected in NMRI mice and after 60 min psychomotor seizures were induced by corneal electrical stimulation (6 Hz, 0.2 ms rectangular pulse width, 3 s duration, 44 mA) using an ECT Unit 5780 (Ugo Basile, Comerio, Italy). Seizure durations were measured during the experiment by experienced researchers, familiar with the different seizure behaviours. In addition, seizure durations were determined by blinded video analysis to confirm or correct the initial observations. Data are expressed as mean±SD.

SMILES: O=C(O)c1cc(O)c2ccc(Cl)cc2n1 [7-chloro-kynurenic acid]
- activity after EKP exposure (locomotor activity relative to EKP only) [1]: not Active
- Phgdh activation (in words) (human Phgdh): could not activate Phgdh; also recorded: no induced activation of PHGDH

- Phgdh activation (in words) (human Phgdh): could not activate Phgdh
SMILES: O=C(Oc1cccc2cccnc12)c1ccccc1 [benzoxyquine]

SMILES: Oc1c(Cl)cc(Cl)c2cccnc12 [chloroxine]
- reduction of epileptiform locomotor activity of Scn1Lab mutant group (Scn1Lab mutant larvae): > 60%
- effect on EKP induced seizures (locomotor activity, actinteg units) [1]: significantly reduced EKP induced seizures

SMILES: Oc1c(I)cc(Cl)c2cccnc12 [clioquinol]
- dose that did not produce toxicity in animals ([2]; animals, over 30 days, in all but one study): 100 mg/(kg day)
- dose with toxicity observed in a week ([2]; dogs, in a week): 400 mg/(kg day)
- dose with neurological toxicity in dogs ([2]; dogs, treated for over a month): exceeding 200 mg/(kg day)
- dose with no apparent adverse effects ([3]; Alzheimer clinical trial, for weeks (10 mg/kg/day)): 750 mg/day
- dose with dose-limiting neurotoxicity and abdominal pain ([3]; humans (42.5 mg/kg/day)): 3200 mg/day
- dose received by patients without toxicity ([3]; humans, per day (~50 mg/(kg day))): 3.5 g
- activity after EKP exposure (locomotor activity relative to EKP only) [1]: superior activity
- effect on EKP induced seizures (locomotor activity, actinteg units) [1]: significantly reduced EKP induced seizures
- effect on cAMP-transporting ABC pumps [4]: inhibits
- effect on the oxido-reduction reaction toward NADH generation (human Phgdh; compound itself, data not shown): does not affect
- dose/concentration ratio in humans ([5]; doses of 250 or 500 mg): 0.64-1.4
- concentrations of free clioquinol in humans relative to hamsters (mean) ([5]; in vivo): 33 times
- seizure duration [6]: trend towards reduced seizure duration

- Phgdh activation (in words) (human Phgdh): activity comparable to clioquinol
SMILES: Oc1ccc(Cl)c2cccnc12 [cloxyquin, 5-Chloro-8-quinolinol]
